Measured values published in patent US20250171432A1, “COMPOUNDS AND METHODS OF USE” (Tango Therapeutics, Inc., priority 2022, published 2025).

Columns and labels:
Format in all cases: cell-based
[1] = system: SDMA (PRMT5 activity) in HAP1 MTAP-intact cell line; assay: SDMA in-cell western assay, HAP1 MTAP-intact; settings: SDMA in-cell western, HAP1 MTAP-intact cells, 24 hours compound incubation
Description: (§1) The SAM-cooperative PRMT5 inhibitor, GSK3326595, was sourced from SelleckChem and maintained as a 10 mM DMSO stock. All test compounds are maintained as 10 mM DMSO stocks
(§2) On Day 0, MTAP-intact or MTAP-deleted cells are seeded in a 384-well plate, and incubated in a humidified, 5% CO2 tissue culture incubator for 16-24 hours. On Day 1, the test compounds are dispensed to wells at defined concentrations using a Tecan D300e digital dispenser (n=4), and the volume of DMSO is normalized to highest class volume. Each plate includes wells dosed with defined concentrations of GSK33226595 as a plate control. The compounds are incubated with cells for 24 hours in a humidified, 5% CO2 tissue culture incubator.
(§3) On Day 2, the compound-treated cells are fixed with a final concentration of 4% formaldehyde. The cells are then washed/permeabilized with 1×PBS+0.1% Triton X-100, and then blocked with 5% goat serum/1×TBS.
(§4) The cells are washed with 1×PBS+0.1% Triton X-100, and then washed again with ddH20. The plates are then imaged using a NIR fluorescent imager (LiCor Odyssey).
(§5) For data analysis, the SDMA signal is normalized to the DRAQ5 signal. Assay background is determined by the signal from wells treated with 1 μM GSK3326595, and subtracted from every well. The data are plotted as % of the DMSO control wells for the MTAP-intact and the MTAP-deleted cell lines independently, and fitted to the 4-parameter logistic (4-PL) Hill equation with maximal effect constrained to 0. The fit was performed using GraphPad Prism or the default IC50 fitting procedure in Dotmatics Studies 5.4 as part of a customized data analysis protocol.

[2] = system: SDMA (PRMT5 activity) in HAP1 MTAP-deleted cell line; assay: SDMA in-cell western assay, HAP1 MTAP-deleted; settings: for IC50 / IC90: SDMA in-cell western, HAP1 MTAP-deleted cells, 24 hours compound incubation; for Hap1 MTAP intact/deleted ratio: ratio of SDMA IC50 in HAP1 MTAP-intact to HAP1 MTAP-deleted cell line
Description: as §1, §2, §3, §4, §5

[3] = system: HAP1 MTAP-deleted cell line; assay: Viability assay (CellTiter-Glo), HAP1 MTAP-deleted; settings: HAP1 MTAP-deleted cells, 7 days
Description: All test compounds are maintained as 10 mM DMSO stocks.
On Day 0, MTAP-intact and MTAP-deleted cells are seeded in a 96-well plate, and incubated in a humidified, 5 or 10% CO2 tissue culture incubator for 16-24 hours. On Day 1, the test compounds are dispensed to wells at defined concentrations using a Tecan D300e digital dispenser (n=3), and the volume of DMSO is normalized to highest class volume (0.2%). The compound-treated plates are incubated for 7 days in a humidified, 5 or 10% CO2 tissue culture incubator.
On Day 7, the plates are removed from the tissue culture incubator and allowed to equilibrate to room temperature. Then either a ½% volume CellTiter-Glo Luminescent Cell Viability Assay reagent (Promega G7572) is added to each well, or the media is removed from every well and a 1:3 dilution of CellTiter-Glo 2.0 Cell Viability Assay reagent (Promega G9241) in 1×PBS is added. Ten minutes after addition, the luminescent signal is detected by an Envision plate reader. The data are plotted as % of the DMSO control wells for the MTAP-intact and the MTAP-deleted cell lines independently, and fitted to the 4-parameter logistic (4-PL) Hill equation with maximal effect constrained to 0. The fit was performed using GraphPad Prism or the default IC50 fitting procedure in Dotmatics Studies 5.4 as part of a customized data analysis protocol.

COc1ncc(NC(=O)C(=O)N2C[C@@H](C)CC[C@@H]2c2ccc3sc([C@@H]4CCN(C)C[C@@H]4C)nc3c2)cc1C(N)=O (relative stereo) [Compound 12, 2-methoxy-5-[[2-oxo-2-[(2R,5S)-5-methyl-2-[2-[rel-(3R,4R)-1,3-dimethyl-4-piperidyl]-1,3-benzothiazol-5-yl]-1-piperidyl]acetyl]amino]pyridine-3-carboxamide]
IC50 ([1]; Homo sapiens, HAP1, 24 h): > 50 nM | IC50 ([2]; Homo sapiens): < 5 nM | IC90 ([2]; Homo sapiens): < 75 nM | Hap1 MTAP intact/deleted ratio [2]: A (“A” indicates an IC50 ratio greater than or equal to 30 fold) | IC50 ([3]; Homo sapiens, 168 h): < 100 nM

CCc1cc(NC(=O)C(=O)N2C[C@@H](C)CC[C@@H]2c2ccc3sc([C@@H]4C[C@@H](C)CN(C)C4)nc3c2)cnc1N (relative stereo) [Compound 23, N-(6-amino-5-ethylpyridin-3-yl)-2-((2R,5S)-2-(2-(1,5-dimethylpiperidin-3-yl)benzo[d]thiazol-5-yl)-5-methylpiperidin-1-yl)-2-oxoacetamide]
IC50 ([1]; Homo sapiens, HAP1, 24 h): 5 to 50 nM | IC50 ([2]; Homo sapiens): < 5 nM | IC90 ([2]; Homo sapiens): < 75 nM | Hap1 MTAP intact/deleted ratio [2]: B (“B” indicates an IC50 ratio greater than or equal to 15 fold but lower than 30 fold) | IC50 ([3]; Homo sapiens, 168 h): < 100 nM

CCc1cc(NC(=O)C(=O)N2C[C@@H](C)CC[C@@H]2c2ccc3cn([C@@H]4C[C@@H](C)CN(C)C4)nc3c2)cnc1N (relative stereo) [Compound 60, N-(6-amino-5-ethylpyridin-3-yl)-2-((2R,5S)-2-(2-(1,5-dimethylpiperidin-3-yl)-2H-indazol-6-yl)-5-methylpiperidin-1-yl)-2-oxoacetamide]
IC50 ([1]; Homo sapiens, HAP1, 24 h): > 50 nM | IC50 ([2]; Homo sapiens): < 5 nM | IC90 ([2]; Homo sapiens): < 75 nM | Hap1 MTAP intact/deleted ratio [2]: A (“A” indicates an IC50 ratio greater than or equal to 30 fold) | IC50 ([3]; Homo sapiens, 168 h): < 100 nM

CCc1cc(NC(=O)C(=O)N2C[C@@H](C)CC[C@@H]2c2cccc(OCC3CCCN3C)c2)cnc1N (relative stereo) [Compound 69, N-(6-amino-5-ethyl-3-pyridyl)-2-oxo-2-[(2R,5S)-5-methyl-2-[3-[[rel-(2R)-1-methylpyrrolidin-2-yl]methoxy]phenyl]-1-piperidyl]acetamide]
IC50 ([1]; Homo sapiens, HAP1, 24 h): > 50 nM | IC50 ([2]; Homo sapiens): < 5 nM | IC90 ([2]; Homo sapiens): < 75 nM | Hap1 MTAP intact/deleted ratio [2]: A (“A” indicates an IC50 ratio greater than or equal to 30 fold) | IC50 ([3]; Homo sapiens, 168 h): < 100 nM

CCc1cc(NC(=O)C(=O)N2C[C@@H](C)CC[C@@H]2c2ccc3cn([C@H]4C[C@H](C)CN(C)C4)nc3c2)cnc1N (relative stereo) [Compound 85, N-(6-amino-5-ethylpyridin-3-yl)-2-((2R,5S)-2-(2-(1,5-dimethylpiperidin-3-yl)-2H-indazol-6-yl)-5-methylpiperidin-1-yl)-2-oxoacetamide]
IC50 ([1]; Homo sapiens, HAP1, 24 h): > 50 nM | IC50 ([2]; Homo sapiens): < 5 nM | IC90 ([2]; Homo sapiens): < 75 nM | Hap1 MTAP intact/deleted ratio [2]: A (“A” indicates an IC50 ratio greater than or equal to 30 fold) | IC50 ([3]; Homo sapiens, 168 h): < 100 nM

C[C@H]1CC[C@H](c2ccc3sc(C4CCN(C)C(C)(C)C4)nc3c2)N(C(=O)C(=O)Nc2cnc(N)c(C3COC3)c2)C1 (single isomer, unassigned) [Compound 1]
IC50 [1]: 5 to 50 nM | IC50 [2]: < 5 nM | IC90 [2]: < 75 nM | Hap1 MTAP intact/deleted ratio [2]: C (“C” indicates an IC50 ratio of less than 15 fold) | IC50 [3]: < 100 nM

CCc1cc(NC(=O)C(=O)N2C[C@@H](C)CC[C@@H]2c2ccc3sc(C(C)CN4CCCC4)nc3c2)cnc1N (single isomer, unassigned) [Compound 2]
IC50 ([1]; Homo sapiens, HAP1, 24 h): 5 to 50 nM | IC50 ([2]; Homo sapiens): < 5 nM | IC90 ([2]; Homo sapiens): < 75 nM | Hap1 MTAP intact/deleted ratio [2]: B (“B” indicates an IC50 ratio greater than or equal to 15 fold but lower than 30 fold) | IC50 ([3]; Homo sapiens, 168 h): < 100 nM

COc1ncc(NC(=O)C(=O)N2C[C@@H](C)CC[C@@H]2c2ccc3sc([C@@H]4CCN(C)CC4(C)C)nc3c2)cc1C(N)=O (single isomer, unassigned) [Compound 3]
IC50 ([1]; Homo sapiens, HAP1, 24 h): > 50 nM | IC50 ([2]; Homo sapiens): < 5 nM | IC90 ([2]; Homo sapiens): < 75 nM | Hap1 MTAP intact/deleted ratio [2]: B (“B” indicates an IC50 ratio greater than or equal to 15 fold but lower than 30 fold) | IC50 ([3]; Homo sapiens, 168 h): < 100 nM

COc1ncc(NC(=O)C(=O)N2C[C@@H](C)CC[C@@H]2c2ccc3sc([C@H]4C[C@@H](N(C)C)C4)nc3c2)cc1C(N)=O (single isomer, unassigned) [Compound 24]
IC50 ([1]; Homo sapiens, HAP1, 24 h): > 50 nM | IC50 ([2]; Homo sapiens): < 5 nM | IC90 ([2]; Homo sapiens): < 75 nM | Hap1 MTAP intact/deleted ratio [2]: A (“A” indicates an IC50 ratio greater than or equal to 30 fold) | IC50 ([3]; Homo sapiens, 168 h): < 100 nM

CCc1cc(NC(=O)C(=O)N2C[C@@H](C)CC[C@@H]2c2ccc3sc([C@H]4CN(C)C(C)(C)C4)nc3c2)cnc1N (single isomer, unassigned) [Compound 27]
IC50 ([1]; Homo sapiens, HAP1, 24 h): 5 to 50 nM | IC50 ([2]; Homo sapiens): < 5 nM | IC90 ([2]; Homo sapiens): < 75 nM | Hap1 MTAP intact/deleted ratio [2]: B (“B” indicates an IC50 ratio greater than or equal to 15 fold but lower than 30 fold) | IC50 ([3]; Homo sapiens, 168 h): < 100 nM

COc1ncc(NC(=O)C(=O)N2C[C@@H](C)CC[C@@H]2c2ccc3sc([C@@H]4CN(C)C(C)(C)C4)nc3c2)cc1C(N)=O (single isomer, unassigned) [Compound 30]
IC50 ([1]; Homo sapiens, HAP1, 24 h): > 50 nM | IC50 ([2]; Homo sapiens): < 5 nM | IC90 ([2]; Homo sapiens): < 75 nM | Hap1 MTAP intact/deleted ratio [2]: B (“B” indicates an IC50 ratio greater than or equal to 15 fold but lower than 30 fold) | IC50 ([3]; Homo sapiens, 168 h): < 100 nM

CCc1cc(NC(=O)C(=O)N2C[C@@H](C)CC[C@@H]2c2ccc3sc([C@H]4C[C@@H]5CN(C)C[C@@H]5C4)nc3c2)cnc1N (single isomer, unassigned) [Compound 33]
IC50 ([1]; Homo sapiens, HAP1, 24 h): > 50 nM | IC50 ([2]; Homo sapiens): < 5 nM | IC90 ([2]; Homo sapiens): < 75 nM | Hap1 MTAP intact/deleted ratio [2]: A (“A” indicates an IC50 ratio greater than or equal to 30 fold) | IC50 ([3]; Homo sapiens, 168 h): < 100 nM

C[C@H]1CC[C@H](c2ccc3sc(C4CCN(C)C(C)(C)C4)nc3c2)N(C(=O)C(=O)Nc2cnc(N)c(C3COC3)c2)C1 (single isomer, unassigned) [Compound 34]
IC50 ([1]; Homo sapiens, HAP1, 24 h): 5 to 50 nM | IC50 ([2]; Homo sapiens): < 5 nM | IC90 ([2]; Homo sapiens): < 75 nM | Hap1 MTAP intact/deleted ratio [2]: C (“C” indicates an IC50 ratio of less than 15 fold) | IC50 ([3]; Homo sapiens, 168 h): < 100 nM

COc1ncc(NC(=O)C(=O)N2C[C@@H](C)CC[C@@H]2c2ccc3sc([C@H]4CCN(C)C[C@@H]4OC)nc3c2)cc1C(N)=O (single isomer, unassigned) [Compound 35]
IC50 ([1]; Homo sapiens, HAP1, 24 h): > 50 nM | IC50 ([2]; Homo sapiens): < 5 nM | IC90 ([2]; Homo sapiens): < 75 nM | Hap1 MTAP intact/deleted ratio [2]: A (“A” indicates an IC50 ratio greater than or equal to 30 fold) | IC50 ([3]; Homo sapiens, 168 h): < 100 nM

COc1ncc(NC(=O)C(=O)N2C[C@@H](C)CC[C@@H]2c2ccc3sc([C@H]4CN(C)CC4(C)C)nc3c2)cc1C(N)=O (single isomer, unassigned) [Compound 36]
IC50 ([1]; Homo sapiens, HAP1, 24 h): > 50 nM | IC50 ([2]; Homo sapiens): < 5 nM | IC90 ([2]; Homo sapiens): < 75 nM | Hap1 MTAP intact/deleted ratio [2]: A (“A” indicates an IC50 ratio greater than or equal to 30 fold) | IC50 ([3]; Homo sapiens, 168 h): < 100 nM

CCc1cc(NC(=O)C(=O)N2C[C@@H](C)CC[C@@H]2c2ccc3sc([C@H]4C[C@H](N(C)C)C4)nc3c2)cnc1N (single isomer, unassigned) [Compound 43]
IC50 ([1]; Homo sapiens, HAP1, 24 h): > 50 nM | IC50 ([2]; Homo sapiens): < 5 nM | IC90 ([2]; Homo sapiens): < 75 nM | Hap1 MTAP intact/deleted ratio [2]: A (“A” indicates an IC50 ratio greater than or equal to 30 fold) | IC50 ([3]; Homo sapiens, 168 h): < 100 nM

CCc1cc(NC(=O)C(=O)N2C[C@@H](C)CC[C@@H]2c2ccc3sc([C@H]4CN(C)CC(C)(C)C4)nc3c2)cnc1N (single isomer, unassigned) [Compound 45]
IC50 ([1]; Homo sapiens, HAP1, 24 h): 5 to 50 nM | IC50 ([2]; Homo sapiens): < 5 nM | IC90 ([2]; Homo sapiens): < 75 nM | Hap1 MTAP intact/deleted ratio [2]: B (“B” indicates an IC50 ratio greater than or equal to 15 fold but lower than 30 fold) | IC50 ([3]; Homo sapiens, 168 h): < 100 nM
